Measurements from patent publication US6664231B1, “Anti-fungal peptides” (priority 1993, dated 2003).

How the values were obtained:
[1] = tested on: C. albicans designated CA-1, Strain SLU-1; details: designated CA-1, Strain SLU-1, 18 h
Experimental: In each broth assay screening procedure, a colony of C. albicans designated CA-1, Strain SLU-1 that was received from the laboratories of G. Matuschak and A. Lechner, St. Louis University Hospital, St. Louis, Mo., where the strain was maintained, was inoculated into a tube containing 5 mL Sabouraud Dextrose broth (2% dextrose, 1% neopeptone) and incubated overnight at 37° C. with shaking. The overnight culture was diluted 1:50 into 5 mL of fresh broth and incubated for 3 hours at 37° C. Organisms were pelleted by centrifugation in a Beckman J-6M centrifuge for 5 minutes at 3000 rpm (1500×g) and the pellets were resuspended in 5 mL phosphate buffered saline (PBS) and the optical density at 570 nm was determined. On the basis of the determination that one OD unit equals 3×10^7 colony forming units/mL, yeast cells were diluted to 2×10^6 cells/mL in Sabouraud Dextrose broth.
Domain III peptides derived from or based on BPI to be screened were originally constituted in Dulbecco's-PBS, were diluted to 100 μg/mL in broth and were serially diluted 2-fold into wells of a 96 well sterile, flat bottom, non-pyrogenic tissue culture plate (Costar, Cambridge, Mass.). All assays were performed in triplicate. 2×10^5 organisms were added at 100 μl per well; final volume was 200 μL/well; the plate was incubated on a shaker at 37° C. for 18 hours; and the optical densities for each well were read at 590 nm. […] The broth assay data may be set out in terms of minimum inhibitory concentration (MIC), i.e. the lowest concentration required to reduce the optical density at 590 nm to below 0.1.

[2] = tested on: Candida albicans SLU-1 strain; experiment: Serum stability, anti-fungal activity after serum incubation by radial diffusion bioassay; format: in vitro ADME, rat or human serum
Outline: (§1)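 Anti-fungal activity against C. albicans SLU-1 was measured by radial diffusion on peptides recovered from serum. Recovery: 1 mg/mL peptide in equal volume of rat or human serum at 37° C, sampled at 0–4 h, C-18 extraction, HPLC, sequencing and ESI/MS.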

Candida glabrata = format: cell-based
Experimental: (§2) In additional experiments, a fluorescence-activated cell sorter (FACS) based assay was developed to test the fungicidal activity of the peptides. […] Difco) agar. Several colonies were picked from the agar plate and inoculated into 5 mL of Sabouraud's Dextrose media in a sterile 10 mL polypropylene tube. The fungal cultures were incubated for about 18 hours at 30° C. […] The culture were centrifuged at 3000 rpm for 5 minutes (Sorvall RT 6000B). After centrifugation, the supernatant was decanted leaving the fungal pellets in the centrifuge tubes. The pellets were resuspended in 15 mL of SDB. Both suspensions were combined into one tube and mixed to generate a stock culture. […] After determining the concentration of the stock, appropriate dilutions were made with Sabouraud's Dextrose media to obtain 100 mL of 1×10^6 cell/mL. […] After the 1 hour incubation, all the tubes were centrifuged at 3000 rpm for 5 minutes. […] Louis, Mo.) in Dulbecco's PBS (DPBS, GIBCO, Grand Island, N.Y.) except the autofluorescence control, which was resuspended in DPBS alone. The tubes were mixed and incubated in the dark at room temperature for at least 20 minutes. […] The settings were adjusted appropriately to the following approximate parameters: Cells were analyzed (10,000 cells/tube) and their respective fluorescence determined. […] The population of dead (i.e., propidium iodide stained) fungal cells was determined by a fluorescence threshold between the negative control and positive control.

Candida parasilosis = format: cell-based
Experimental: as §2

Candida lusitaniae = format: cell-based
Experimental: as §2

[3] = tested on: endotoxin (E. coli O111:B4); experiment: Mouse experimental endotoxemia model; format: in vivo; details: endotoxin 20 mg/kg, 7 days
Experimental: Domain III derived peptides are also tested for LPS neutralizing efficacy in an in vivo mouse experimental endotoxemia model. […] This was followed by a second intravenous injection of the peptide to be tested. Injections of saline were used in negative control mice. […] The efficacy of the peptides was measured by a decrease in endotoxemia-associated mortality in peptide-injected mice as compared with control mice. […] No animals survived in the saline control group.

[4] = Serum stability, anti-fungal activity after serum incubation by radial diffusion bioassay; format: in vitro ADME, rat or human serum; details: Activity in Serum t ½ (hr.)
Outline: as §1

[5] = tested on: Crytococcus Neoformans 13690; format: cell-based, Cryptococcus neoformans
Experimental: as §2, with “alone.” for “alone. The tubes were mixed and incubated in the dark at room temperature for at least 20 minutes.”

| Substance | minimum inhibitory concentration (MIC), lowest concentration required to reduce the optical density at 590 nm to below 0.1 [1] | Activity in Serum t ½ (hr.) [2] | Candida glabrata IC50 (Candida glabrata) | Candida parasilosis IC50 (Candida parasilosis) | Candida lusitaniae IC50 (Candida lusitaniae) | protection from endotoxemia-associated mortality ([3]; 0.5 mg/kg dose i.v., FIG. 9) | animals protected ([3]; 1 mg/kg dose i.v.) | half-life at 0.5 mg/mL [4] | Activity of Peptides on Crytococcus Neoformans 13690, IC50 [5] |
| --- | --- | --- | --- | --- | --- | --- | --- | --- | --- |
| H-KSKVGWLIQLFHKK-NH2 [XMP.13] | 12.5 µg/mL | indefinite |  |  |  |  |  |  |  |
| H-SKVKWLIQLFHKK-NH2 [XMP.284] |  |  | 6.27 µg/mL | 1.82 µg/mL | 1.20 µg/mL | significant protection | 14 of 15 | 14.6 h | 0.11 µg/mL |
